Reference: patent US8309584B2, “Sulfur containing pyrazole-heterocycle derivatives as cannabinoid CB1 receptor antagonists” (Green Cross Corporation, priority 2008, dated 2012)

target: T1, rat CB-1 receptor (Rattus norvegicus, UniProt P20272); assay: rat cannabinoid-1 receptor (CB1R) binding affinity assay; settings: not given
T1 construct: The tissue obtained from the brain of SD rats was homogenized; from tissue; host or cells: SD rat brain membrane homogenate
Protocol: The tissue obtained from the brain of SD rats was homogenized with a Dounce homogenate system in TME(50 mM Tris, 3 mM MgCl2 and 1 mM EDTA, pH 7.4) at 4° C., and the homogenate was centrifuged at 48,000 g for 30 min. at 4° C. The pellet was resuspended in 5 ml of TME and the suspension was divided into aliquots and stored at −70° C. until its use in the following assay.
The tissue concentrations were determined by Bradford protein analysis, and 148 μl of brain tissue of the required concentration was added to the plate. The plate was covered and placed in a 30° C. incubator for 60 min, and then transformed on GF/B filtermat pretreated in polyethylenimine (PEI) using a cell harvester. Each filter was washed five times and dried at 60° C. for 1 hr. Then, the degree of radioactivity retained by the filter was measured using Wallac Microbeta™ (PerkinElmer Life Sciences, Inc., Massachusetts, U.S.A.) and the activity of the compound for inhibiting CB1 receptor was determined therefrom.

T1 sequence (P20272 whole entry): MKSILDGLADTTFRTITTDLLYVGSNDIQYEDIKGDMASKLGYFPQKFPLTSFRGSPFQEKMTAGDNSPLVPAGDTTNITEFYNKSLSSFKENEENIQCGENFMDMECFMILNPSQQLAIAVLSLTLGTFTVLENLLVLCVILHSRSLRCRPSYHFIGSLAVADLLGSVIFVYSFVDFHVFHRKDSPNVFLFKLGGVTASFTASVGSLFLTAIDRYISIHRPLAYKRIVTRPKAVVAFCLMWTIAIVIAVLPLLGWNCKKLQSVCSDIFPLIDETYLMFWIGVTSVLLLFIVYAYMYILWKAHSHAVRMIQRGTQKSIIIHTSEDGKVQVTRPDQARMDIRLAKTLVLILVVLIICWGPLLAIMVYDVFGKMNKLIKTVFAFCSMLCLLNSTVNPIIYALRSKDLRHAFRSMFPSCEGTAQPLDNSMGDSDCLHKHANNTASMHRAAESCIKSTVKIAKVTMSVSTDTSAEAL

Row | Compound | IC50 [nM]
1 | CSc1c(-c2nnc(C3(C(F)(F)F)CCC3)s2)nn(-c2ccccc2Cl)c1-c1ccc(Br)cc1 [Example 35, 2-(5-(4-bromophenyl)-1-(2-chlorophenyl)-4-(methylthio)-1H-pyrazol-3-yl)-5-(1-(trifluoromethyl)cyclobutyl)-1,3,4-thiadiazole] | 7.77
2 | CS(=O)(=O)c1c(-c2nnc(C3(C(F)(F)F)CCC3)o2)nn(-c2ccc(Cl)cc2Cl)c1-c1ccc(Cl)cc1 [Example 82, 2-(5-(4-chlorophenyl)-1-(2,4-dichlorophenyl)-4-(methylsulfonyl)-1H-pyrazol-3-yl)-5-(1-(trifluoromethyl)cyclobutyl)-1,3,4-oxadiazole] | 6.79
3 | CSc1c(-c2nnc(C3(c4ccc(Cl)cc4)CC3)s2)nn(-c2ccc(Cl)cc2Cl)c1-c1ccc(Cl)cc1 [Example 24, 2-(5-(4-chlorophenyl)-1-(2,4-dichlorophenyl)-4-(methylthio)-1H-pyrazol-3-yl)-5-(1-(4-chlorophenyl)cyclopropyl)-1,3,4-thiadiazole] | 6.66

same assay, conditions: [3H]CP-55940 radioligand, SD rat brain tissue homogenate, 30° C., 60 min; read-out: IC50

Row | Compound | IC50 [nM]
4 | CS(=O)(=O)c1c(-c2nnc(C3(C(F)(F)F)CCC3)s2)nn(-c2ccccc2Cl)c1-c1ccc(Br)cc1 [Example 114, 2-(5-(4-bromophenyl)-1-(2-chlorophenyl)-4-(methylsulfonyl)-1H-pyrazol-3-yl)-5-(1-(trifluoromethyl)cyclobutyl)-1,3,4-thiadiazole] | 1.08
5 | CCS(=O)(=O)c1c(-c2nnc(C3(c4ccc(Cl)cc4)CC3)s2)nn(-c2ccc(Cl)cc2Cl)c1-c1ccc(Cl)cc1 [Example 119, 2-(5-(4-chlorophenyl)-1-(2,4-dichlorophenyl)-4-(ethylsulfonyl)-1H-pyrazol-3-yl)-5-(1-(4-chlorophenyl)cyclopropyl)-1,3,4-thiadiazole] | 2.06
6 | CSc1c(-c2nnc(C3(C(F)(F)F)CC3)s2)nn(-c2ccc(Cl)cc2Cl)c1-c1ccc(Cl)cc1 [Example 22, 2-(5-(4-chlorophenyl)-1-(2,4-dichlorophenyl)-4-(methylthio)-1H-pyrazol-3-yl)-5-(1-(trifluoromethyl)cyclopropyl)-1,3,4-thiadiazole] | 10.9
7 | CS(=O)(=O)c1c(-c2nnc(C3(C(F)(F)F)CCC3)o2)nn(-c2ccc(Cl)cc2Cl)c1-c1ccc(Br)cc1 [Example 90, 2-(5-(4-bromophenyl)-1-(2,4-dichlorophenyl)-4-(methylsulfonyl)-1H-pyrazol-3-yl)-5-(1-(trifluoromethyl)cyclobutyl)-1,3,4-oxadiazole] | 7.34
8 | CS(=O)(=O)c1c(-c2nnc(C3(c4ccc(Cl)cc4)CC3)s2)nn(-c2ccc(Cl)cc2Cl)c1-c1ccc(Cl)cc1 [Example 103, 2-(5-(4-chlorophenyl)-1-(2,4-dichlorophenyl)-4-(methylsulfonyl)-1H-pyrazol-3-yl)-5-(1-(4-chlorophenyl)cyclopropyl)-1,3,4-thiadiazole] | 4.34
9 | CSc1c(-c2nnc(C3(C(F)(F)F)CCC3)o2)nn(-c2ccc(Cl)cc2Cl)c1-c1ccc(Cl)cc1 [Example 3, 2-(5-(4-chlorophenyl)-1-(2,4-dichlorophenyl)-4-(methylthio)-1H-pyrazol-3-yl)-5-(1-(trifluoromethyl)cyclobutyl)-1,3,4-oxadiazole] | 9.71
10 | CSc1c(-c2nnc(C3(C(F)(F)F)CCC3)o2)nn(-c2ccccc2Cl)c1-c1ccc(Cl)cc1 [Example 7, 2-(1-(2-chlorophenyl)-5-(4-chlorophenyl)-4-(methylthio)-1H-pyrazol-3-yl)-5-(1-(trifluoromethyl)cyclobutyl)-1,3,4-oxadiazole] | 4.21
11 | CS(=O)(=O)c1c(-c2nnc(C3(C(F)(F)F)CCC3)s2)nn(-c2ccc(Cl)cc2Cl)c1-c1ccc(Cl)cc1 [Example 102, 2-(5-(4-chlorophenyl)-1-(2,4-dichlorophenyl)-4-(methylsulfonyl)-1H-pyrazol-3-yl)-5-(1-(trifluoromethyl)cyclobutyl)-1,3,4-thiadiazole] | 3.74
12 | C[S+]([O-])c1c(-c2nnc(C3(C(F)(F)F)CCC3)o2)nn(-c2ccccc2Cl)c1-c1ccc(Br)cc1 (stereo not shown) [Example 55, 2-(5-(4-bromophenyl)-1-(2-chlorophenyl)-4-(methylsulfinyl)-1H-pyrazol-3-yl)-5-(1-(trifluoromethyl)cyclobutyl)-1,3,4-oxadiazole] | 6.51
13 | C[S+]([O-])c1c(-c2nnc(C(C)(C)C)o2)nn(-c2ccc(Cl)cc2Cl)c1-c1ccc(Cl)cc1 (stereo not shown) [Example 41, 2-tert-butyl-5-(5-(4-chlorophenyl)-1-(2,4-dichlorophenyl)-4-(methylsulfinyl)-1H-pyrazol-3-yl)-1,3,4-oxadiazole] | 30.4
14 | CC(C)(C)c1nnc(-c2nn(-c3ccc(Cl)cc3Cl)c(-c3ccc(Cl)cc3)c2S(C)(=O)=O)o1 [Example 80, 2-tert-butyl-5-(5-(4-chlorophenyl)-1-(2,4-dichlorophenyl)-4-(methylsulfonyl)-1H-pyrazol-3-yl)-1,3,4-oxadiazole] | 15.2
15 | C[S+]([O-])c1c(-c2nnc(C3(C(F)(F)F)CC3)o2)nn(-c2ccc(Cl)cc2Cl)c1-c1ccc(Cl)cc1 (stereo not shown) [Example 42, 2-(5-(4-chlorophenyl)-1-(2,4-dichlorophenyl)-4-(methylsulfinyl)-1H-pyrazol-3-yl)-5-(1-(trifluoromethyl)cyclopropyl)-1,3,4-oxadiazole] | 24.6
16 | CSc1c(-c2nnc(C(C)(C)C)o2)nn(-c2ccc(Cl)cc2Cl)c1-c1ccc(Br)cc1 [Example 9, 2-(5-(4-bromophenyl)-1-(2,4-dichlorophenyl)-4-(methylthio)-1H-pyrazol-3-yl)-5-tert-butyl-1,3,4-oxadiazole] | 5.5
17 | C[S+]([O-])c1c(-c2nnc(C3(C(F)(F)F)CCC3)o2)nn(-c2ccc(Cl)cc2Cl)c1-c1ccc(Cl)cc1 (stereo not shown) [Example 43, 2-(5-(4-chlorophenyl)-1-(2,4-dichlorophenyl)-4-(methylsulfinyl)-1H-pyrazol-3-yl)-5-(1-(trifluoromethyl)cyclobutyl)-1,3,4-oxadiazole] | 8.92
18 | CC(C)(C)c1nnc(-c2nn(-c3ccccc3Cl)c(-c3ccc(Br)cc3)c2S(C)(=O)=O)s1 [Example 112, 2-(5-(4-bromophenyl)-1-(2-chlorophenyl)-4-(methylsulfonyl)-1H-pyrazol-3-yl)-5-tert-butyl-1,3,4-thiadiazole] | 3.01
19 | CSc1c(-c2nnc(C3(C(F)(F)F)CC3)s2)nn(-c2ccccc2Cl)c1-c1ccc(Br)cc1 [Example 34, 2-(5-(4-bromophenyl)-1-(2-chlorophenyl)-4-(methylthio)-1H-pyrazol-3-yl)-5-(1-(trifluoromethyl)cyclopropyl)-1,3,4-thiadiazole] | 17.1
20 | CC(C)(C)c1nnc(-c2nn(-c3ccc(Cl)cc3Cl)c(-c3ccc(Cl)cc3)c2S(C)(=O)=O)s1 [Example 100, 2-tert-butyl-5-(5-(4-chlorophenyl)-1-(2,4-dichlorophenyl)-4-(methylsulfonyl)-1H-pyrazol-3-yl)-1,3,4-thiadiazole] | 5.84
21 | CSc1c(-c2nnc(C(C)(C)C)o2)nn(-c2ccc(Cl)cc2Cl)c1-c1ccc(Cl)cc1 [Example 1, 2-tert-butyl-5-(5-(4-chlorophenyl)-1-(2,4-dichlorophenyl)-4-(methylthio)-1H-pyrazol-3-yl)-1,3,4-oxadiazole] | 6.26
22 | C[S+]([O-])c1c(-c2nnc(C3(C(F)(F)F)CC3)s2)nn(-c2ccc(Cl)cc2Cl)c1-c1ccc(Cl)cc1 (stereo not shown) [Example 61, 2-(5-(4-chlorophenyl)-1-(2,4-dichlorophenyl)-4-(methylsulfinyl)-1H-pyrazol-3-yl)-5-(1-(trifluoromethyl)cyclopropyl)-1,3,4-thiadiazole] | 11.3
23 | CSc1c(-c2nnc(C3(C(F)(F)F)CC3)o2)nn(-c2ccc(Cl)cc2Cl)c1-c1ccc(Br)cc1 [Example 10, 2-(5-(4-bromophenyl)-1-(2,4-dichlorophenyl)-4-(methylthio)-1H-pyrazol-3-yl)-5-(1-(trifluoromethyl)cyclopropyl)-1,3,4-oxadiazole] | 7.95
24 | CSc1c(-c2nnc(C3(C(F)(F)F)CC3)o2)nn(-c2ccc(Cl)cc2Cl)c1-c1ccc(Cl)cc1 [Example 2, 2-(5-(4-chlorophenyl)-1-(2,4-dichlorophenyl)-4-(methylthio)-1H-pyrazol-3-yl)-5-(1-(trifluoromethyl)cyclopropyl)-1,3,4-oxadiazole] | 6.63
25 | CSc1c(-c2nnc(C3(c4ccc(Cl)cc4)CC3)o2)nn(-c2ccccc2Cl)c1-c1ccc(Cl)cc1 [Example 8, 2-(1-(2-chlorophenyl)-5-(4-chlorophenyl)-4-(methylthio)-1H-pyrazol-3-yl)-5-(1-(4-chlorophenyl)cyclopropyl)-1,3,4-oxadiazole] | 4.61
26 | C[S+]([O-])c1c(-c2nnc(C(C)(C)C)o2)nn(-c2ccccc2Cl)c1-c1ccc(Br)cc1 (stereo not shown) [Example 53, 2-(5-(4-bromophenyl)-1-(2-chlorophenyl)-4-(methylsulfinyl)-1H-pyrazol-3-yl)-5-tert-butyl-1,3,4-oxadiazole] | 15.6
27 | CS(=O)(=O)c1c(-c2nnc(C3(C(F)(F)F)CC3)s2)nn(-c2ccccc2Cl)c1-c1ccc(Br)cc1 [Example 113, 2-(5-(4-bromophenyl)-1-(2-chlorophenyl)-4-(methylsulfonyl)-1H-pyrazol-3-yl)-5-(1-(trifluoromethyl)cyclopropyl)-1,3,4-thiadiazole] | 2.51
28 | CSc1c(-c2nnc(C3(c4ccc(Cl)cc4)CC3)o2)nn(-c2ccc(Cl)cc2Cl)c1-c1ccc(Cl)cc1 [Example 4, 2-(5-(4-chlorophenyl)-1-(2,4-dichlorophenyl)-4-(methylthio)-1H-pyrazol-3-yl)-5-(1-(4-chlorophenyl)cyclopropyl)-1,3,4-oxadiazole] | 5.26
